Patent US9873880B2, “Engineering microorganisms” (DSM NUTRITIONAL PRODUCTS AG, priority 2013, dated 2018)

Experiments:
[1] = tested on: parental strain (the wild type strain) ONC-T18; assay: Zeocin sensitivity of the parental (wild type) strain, spotted colonies; format: cell-based, Thraustochytrium sp. ONC-T18; conditions: ONC-T18-GM0 agar plates, 18 g/L sea salt, spotted cells
Protocol: (§1) A very small amount of inoculum of zeocin-resistant strains that had been transferred three times via colony passages on zeocin/ONC-T18-GM0 agar plates (as well as their parental strain or the wild type strain) was picked from colonies using a 10 μL pipette tip and re-suspended in 50 μL sterilized water in a 200 μL PCR tube. One μL of the cell suspension was spotted on ONC-T18-GM0 agar plates containing 18 g/L sea salt (15 g/L agar) and zeocin at a concentration ranging from 0 to 5000 μg/mL (Invitrogen, CA, USA). The diameters of the spotted colonies were measured on day 1, day 3, day 5, day 7, and day 8.

[2] = tested on: wild type strains ONC-T18; assay: Transgene stability assay, growth on zeocin plates after six colony passages; format: cell-based, Thraustochytrium sp. ONC-T18; conditions: zeocin 200 μg/mL media
Excerpt: Transgene stability is important for certain applications of genetic engineering in industrial microbial strain improvement programs where microorganisms are used in pharmaceutical or industrial processes, and where product quantity and quality are paramount. We therefore carried out transgene stability estimate assays of transformed ONC-T18 strains. As for the growth rate assays described in above, inocula of four strains of each transformation as well as their ancestor wild type strains were spotted on ONC-T18-GM0 agar plates in the absence of zeocin and incubated at 25° C. for seven days. (Each transformation had been performed using one of the five different plasmid constructs, each of which bears various zeocin-resistant gene expression cassettes driven by a combination of different promoters and terminators). Then, using the same method, strains were transferred on a new fresh ONC-T18-GM0 agar plate and incubated at 25° C. for 7 days; colony passages were carried out 6 times. Finally, strains were transferred back onto ONC-T18-GM0 agar plates either without or with zeocin at a concentration of 200 μg/mL media.

[3] = cited from earlier work
[4] = tested on: wild type strain of ONC-T18; assay: Zeocin as mutagenic agent on ONC-T18 agar plates; format: cell-based, Thraustochytrium sp. ONC-T18
Protocol: The marine protist wild type strain of ONC-T18 was chosen as a model system to test if zeocin would be effective to induce mutagenesis in this strain. One full loop of the inocula of ONC-T18, growing in the agar plates containing ONC-T18-GM0 medium [5 g/L yeast extract, 5 g/L peptone, 10 g/L D(+)-glucose. 35 g/L artificial sea salt, 1.25 mg/L trace elements (5 g/L NaH2PO4.H2O, 3.15 g/L FeCl3.6H2O, 4.36 g/L Na2EDTA.2H2O, 0.6125 mg/L CuSO4.5H2O, 0.0597 g/L Na2MoO4.2H2O, 0.022 g/L ZnSO4.7H2O, 0.01 g/L CoCl2.6H2O, 0.18 g/L MnCl2.4H2O, 13 μg/L […], 2.7 mg/L NiSO4.6H2O, 1.84 mg/L Na3VO4 and 1.94 mg/L […]). 1.25 mg/L vitamins (1 mg/L vitamin B12, 1 mg/L biotin, 0.20 g/L thiamine HCl) and 20 g agar per liter], was inoculated into 50 mL liquid ONC-T18-GM0 medium, and incubated in a shaker incubator at 25° C. at 250 rpm for 36 hours. Half a milliliter of culture was transferred into a 1.5 mL tube and vortexed at full speed for 30 seconds, and then diluted in 50 mL sterilized water. One hundred microliters of the diluted inocula were respectively spread on the agar plates containing zeocin at various concentrations (0, 10, 30, 50, and 100 μg/mL). Plates were incubated at 25° C. incubator. The emergence and development of the colonies were observed daily. […] Under these conditions, zeocin was effective within the range of at least 10-200 μg/mL; higher concentrations may well also be effective. For example, concentrations in the range of 200-500 μg/mL or higher could work. […] Under the particular conditions utilized in the present Example, zeocin worked best at 50 μg/mL.

[5] = tested on: Thraustochytrium sp. ONC-T18; assay: Effects of antibiotics on the growth of ONC-T18 on ONC-T18-GM0 agar plates; format: cell-based
Protocol: Thraustochytrium sp. ONC-T18 was grown on agar plates (20 g agar per liter ONC-T18-GM0). One loop of inoculum of ONC-T18 was inoculated into 50 mL of liquid ONC-T18-GM0, and the culture was incubated in a shaker incubator at 25° C. at 250 rpm for 36 hours. Half a milliliter of the culture was transferred into a 1.5 mL tube and vortexed at full speed for 30 seconds to break down cell clusters, then diluted in 50 mL sterilized water. One hundred microliters of the resulting solution was spread onto each ONC-T18-GM0 medium plate. Each plate contained one of various antibiotics at one of various concentrations. Plates were incubated at 25° C. and emergence and development of colonies were observed daily.

[6] = tested on: transformed strains bearing the zeocin-resistance gene (from S. hidustanus) expression cassette; assay: Zeocin sensitivity of transformed strains, spotted colonies; format: cell-based, Thraustochytrium sp. ONC-T18; conditions: 18 g/L sea salt
Protocol: as §1

[7] = tested on: Thraustochytrium sp. ONC-T18; assay: Effects of zeocin and salinity on colony numbers and colony diameters of ONC-T18; format: cell-based; conditions: for colony numbers: 10 days; for colony numbers / colony growth rates (diameter in mm): mean of two plates
Protocol: One hundred μL of ONC-T18 cell suspension diluted at 1:500 from a 2-day culture were spread onto ONC-T18-GM0 plates containing various concentrations of antibiotic zeocin and sea salt. Inoculated plates were incubated in a 25° C. incubator for 10 days. The numbers of the colonies on each plate were counted. […] In plates containing 8.5 g/L sea salt without zeocin, only one colony was observed. In plates containing 18 g/L sea salt without zeocin, colony numbers were similar to that of plates containing 35 g/L sea salt without zeocin. […] Therefore, for this work, 18 g/L sea salt was used to make ONC-T18-GM0 for selection of ONC-T18 transformants transformed with constructs bearing a zeocin-resistant gene expression cassette.

[8] = agar plates, ONC-T18-GM0, 35 g/L artificial sea salt

Cc1c(N)nc([C@H](CC(N)=O)NC[C@H](N)C(N)=O)nc1C(=O)N[C@H](C(=O)N[C@H](C)[C@@H](O)[C@H](C)C(=O)N[C@H](C(=O)NCCC1=N[C@@H](c2nc(C(=O)NCCCCN=C(N)N)cs2)CS1)[C@@H](C)O)[C@@H](O[C@@H]1O[C@@H](CO)[C@@H](O)[C@H](O)[C@@H]1O[C@H]1O[C@H](CO)[C@@H](O)[C@H](OC(N)=O)[C@@H]1O)c1cnc[nH]1 [Zeocin, zeocin]
zeocin concentration on which the wild type strain grew [1]: ≤ 30 µg/mL | growth of wild type strains [2]: none of the wild type strains were able to grow | stability at high salt concentrations ([3]; Invitrogen): unstable | water solubility ([3]; InvivoGen): water soluble | concentration at which zeocin worked best as mutagen [4, 8]: 50 µg/mL | concentration range in which zeocin was effective as mutagen [4, 8]: 10 to 200 µg/mL | colonies seen per plate ([4]; zeocin 50 μg/mL, six days post inoculation): Only a few of colonies | sensitivity of ONC-T18 cells to zeocin ([4]; zeocin 100 μg/mL): highly sensitive | effect on growth of ONC-T18 (in words) [5]: significantly inhibited the growth | growth of transformed strains ([6]; zeocin 5000 μg/mL): most strains grew remarkably slower | growth of transformed strains ([6]; zeocin 30 to 1000 μg/mL): grew well | zeocin concentration that completely inhibited growth of ONC-T18 ([7]; ONC-T18-GM0 agar plates containing 18 g/L sea salt): 30 µg/mL | zeocin concentration needed for complete inhibition of ONC-T18 ([7]; ONC-T18-GM0 agar plates containing 35 g/L sea salt): 100 µg/mL | colony numbers ([7]; salt 5 g/L, zeocin 10 μg/mL): 0 | colony growth rates (diameter in mm) ([7]; salt 5 g/L, zeocin 10 μg/mL): 0 mm | colony numbers ([7]; salt 5 g/L, zeocin 30 μg/mL): 0 | colony growth rates (diameter in mm) ([7]; salt 5 g/L, zeocin 30 μg/mL): 0 mm | colony numbers ([7]; salt 5 g/L, zeocin 50 μg/mL): 0 | colony growth rates (diameter in mm) ([7]; salt 5 g/L, zeocin 50 μg/mL): 0 mm | colony numbers ([7]; salt 5 g/L, zeocin 100 μg/mL): 0 | colony growth rates (diameter in mm) ([7]; salt 5 g/L, zeocin 100 μg/mL): 0 mm | colony numbers ([7]; salt 8.5 g/L, zeocin 10 μg/mL): 0 | colony growth rates (diameter in mm) ([7]; salt 8.5 g/L, zeocin 10 μg/mL): 0 mm | colony numbers ([7]; salt 8.5 g/L, zeocin 30 μg/mL): 0 | colony growth rates (diameter in mm) ([7]; salt 8.5 g/L, zeocin 30 μg/mL): 0 mm | colony numbers ([7]; salt 8.5 g/L, zeocin 50 μg/mL): 0 | colony growth rates (diameter in mm) ([7]; salt 8.5 g/L, zeocin 50 μg/mL): 0 mm | colony numbers ([7]; salt 8.5 g/L, zeocin 100 μg/mL): 0 | colony growth rates (diameter in mm) ([7]; salt 8.5 g/L, zeocin 100 μg/mL): 0 mm | colony numbers ([7]; salt 18 g/L, zeocin 10 μg/mL): 11 | colony growth rates (diameter in mm) ([7]; salt 18 g/L, zeocin 10 μg/mL): 4.1 mm | colony numbers ([7]; salt 18 g/L, zeocin 30 μg/mL): 0 | colony growth rates (diameter in mm) ([7]; salt 18 g/L, zeocin 30 μg/mL): 0 mm | colony numbers ([7]; salt 18 g/L, zeocin 50 μg/mL): 0 | colony growth rates (diameter in mm) ([7]; salt 18 g/L, zeocin 50 μg/mL): 0 mm | colony numbers ([7]; salt 18 g/L, zeocin 100 μg/mL): 0 | colony growth rates (diameter in mm) ([7]; salt 18 g/L, zeocin 100 μg/mL): 0 mm | colony numbers ([7]; salt 35 g/L, zeocin 10 μg/mL): 22.5 | colony growth rates (diameter in mm) ([7]; salt 35 g/L, zeocin 10 μg/mL): 4.1 mm | colony numbers ([7]; salt 35 g/L, zeocin 30 μg/mL): 11 | colony growth rates (diameter in mm) ([7]; salt 35 g/L, zeocin 30 μg/mL): 1.9 mm | colony numbers ([7]; salt 35 g/L, zeocin 50 μg/mL): 5 | colony growth rates (diameter in mm) ([7]; salt 35 g/L, zeocin 50 μg/mL): 0.6 mm | colony numbers ([7]; salt 35 g/L, zeocin 100 μg/mL): 0 | colony growth rates (diameter in mm) ([7]; salt 35 g/L, zeocin 100 μg/mL): 0 mm
